Series [1] can be described thus: Bioavailability and plasma concentration after midazolam from the bi-dose nasal spray.
Another series deals with claustrophobic patients. As to conditions: cited from earlier work.
The conditions of series [2]: aqueous solution, depending on content of active agent; cited from earlier work.
For series [3] the following is noted: nasal administration, no first pass effect; cited from earlier work.

Consider one compound from US12239780B2, “Bi-dose nasal spray” (AKROSWISS AG, priority 2018, dated 2025).

Broadly, the bioavailability is dose-corrected exposure relative to a reference, in per cent. Consider `Cc1ncc2n1-c1ccc(Cl)cc1C(c1ccccc1F)=NC2` [midazolam, 8-chloro-6-(2-fluorophenyl)-1-methyl-4H-imidazole[1,5-a][1,4]-benzodiazepine], for which the “time after administration at which a significant plasma concentration is achieved” value in series [1] (bi-dose nasal spray, intranasal) worked out at 2 min. In addition, the bioavailability in series [1] (human, plasma, inhaled or intranasal) is > 83%. In addition, the “MRI examinations carried out successfully and without relevant side effects” value with claustrophobic patients (72 patients, oral 7.5 mg (TG1) or intranasal 1.0 to 2.0 mg (TG2)) is on record as 97%. In the series on claustrophobic patients (intranasal 1-2 mg versus oral 7.5 mg, p<0.001), the “MRI imaging quality, intranasal group TG2 compared to oral group TG1” value is listed as “significantly higher”. Moreover, in the series on claustrophobic patients (intranasal 1-2 mg versus oral 7.5 mg), the “anxiolytic effect of nasally administered versus orally administered form” value is “significantly superior”. Further, the “pH below which the solution of the active agent is stable (precipitates at higher pH)” value in series [2] is on record as < 3.8 pH. In series [3], the “bioavailability using a nasal spray” value is listed as “about 80%”.
